Measurements: patent publication US11566007B2, “Ras inhibitors” (Revolution Medicines, Inc., priority 2019, dated 2023)
pEC50, pIC50: −log10 of the molar value. Values joined by “and” are separate entries in the source; they are usually repeats but may differ in a detail not shown here. Identical values can stand only once.

Assays:
[1] = system: NCI-H358 cells (K-Ras G12C); assay: Potency assay: pERK in NCI-H358 cells; assay type: cell-based, human; conditions: Homo sapiens, NCI-H358; H358 KRAS G12C; read-out: pERK EC50
Procedure, shortened: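 4 h cpd, 37 °C; 10-pt 3-fold series, 10 mM DMSO top stock, duplicates. Readout pERK: AlphaLISA SureFire Ultra or In-Cell Western (IR-800CW secondary, DRAQ5 DNA stain). IC50, 4-PL fit vs log conc.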

NCI-H358 (K-Ras G12C) = assay: CellTiter-Glo cell viability assay, NCI-H358; assay type: cell-based, human; conditions: Homo sapiens, NCI-H358, 120 h, NCI-H358, 5-day treatment; class symbols; read-out: Additional H358 Cell Viability assay data (K-Ras G12C, IC50)
Procedure, shortened: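 Viability of K-Ras mutant lines is measured by ATP luminescence after five days of compound treatment. Percent of DMSO control is calculated and dose-response data are fitted with a four-parameter logistic equation.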

K-Ras G12C = K-Ras G12C (Homo sapiens (Human), UniProt P01116+P62937, G12C); assay: Ras-Raf (BRAF RBD) disruption / FRET / MOA assay, KRAS G12C; assay type: biochemical; conditions: KRAS G12C; Ras-Raf disruption/FRET/MOA assay; read-out: IC50* KRAS G12C FRET data
K-Ras G12C, sequence (P01116-2 other isoform, or with tags, fused parts or gaps G12C): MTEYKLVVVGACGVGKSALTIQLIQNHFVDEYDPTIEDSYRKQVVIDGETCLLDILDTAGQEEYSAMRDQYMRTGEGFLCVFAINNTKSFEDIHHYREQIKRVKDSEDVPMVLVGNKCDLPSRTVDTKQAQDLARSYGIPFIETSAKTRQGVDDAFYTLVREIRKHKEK
K-Ras G12C, sequence (P62937 whole entry): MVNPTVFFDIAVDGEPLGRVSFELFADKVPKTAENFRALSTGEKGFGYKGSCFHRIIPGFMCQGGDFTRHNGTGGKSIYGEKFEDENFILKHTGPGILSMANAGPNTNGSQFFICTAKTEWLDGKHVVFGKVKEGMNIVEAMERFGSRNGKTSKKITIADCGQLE
Procedure, shortened: (§1)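 Ternary complex formation (Ras–compound–cyclophilin A) displacing BRAF RBD, monitored by TR-FRET. Three hours at 25° C with compound (top 30 μM final), then 1.5 h with the labelled antibodies. Lower ratio than DMSO indicates disruption; IC50 reported.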

K-Ras G13C = K-Ras G13C (Homo sapiens (Human), UniProt P01116+P62937, G13C); assay: Ras-Raf (BRAF RBD) disruption / FRET / MOA assay, KRAS G13C; assay type: biochemical; conditions: KRAS G13C; Ras-Raf disruption/FRET/MOA assay; read-out: IC50* KRAS G13C FRET data
K-Ras G13C, sequence (P01116-2 other isoform, or with tags, fused parts or gaps G13C): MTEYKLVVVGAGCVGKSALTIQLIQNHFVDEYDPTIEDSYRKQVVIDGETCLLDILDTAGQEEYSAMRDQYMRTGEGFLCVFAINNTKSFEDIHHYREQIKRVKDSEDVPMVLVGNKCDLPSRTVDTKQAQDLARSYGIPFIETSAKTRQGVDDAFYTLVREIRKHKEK
K-Ras G13C, sequence (P62937 whole entry): as the sequence (P62937 whole entry) above
Procedure, shortened: as §1

KRAS G12S = KRAS G12S (Homo sapiens (Human), UniProt P01116+P62937, G12S); assay: Ras-Raf (BRAF RBD) disruption / FRET / MOA assay, KRAS G12S; assay type: biochemical; conditions: Ras-Raf disruption/FRET/MOA assay; class symbols; read-out: KRAS G12S FRET data IC50
KRAS G12S, sequence (P01116-2 other isoform, or with tags, fused parts or gaps G12S): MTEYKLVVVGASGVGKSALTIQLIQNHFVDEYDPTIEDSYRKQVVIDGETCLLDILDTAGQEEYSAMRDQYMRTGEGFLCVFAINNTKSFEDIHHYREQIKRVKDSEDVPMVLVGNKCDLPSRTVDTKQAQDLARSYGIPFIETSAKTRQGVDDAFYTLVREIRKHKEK
KRAS G12S, sequence (P62937 whole entry): as the sequence (P62937 whole entry) above
Procedure, shortened: as §1

KRAS G12D = KRAS G12D (Homo sapiens (Human), UniProt P01116+P62937, G12D); assay: Ras-Raf (BRAF RBD) disruption / FRET / MOA assay, KRAS G12D; assay type: biochemical; conditions: Ras-Raf disruption/FRET/MOA assay; class symbols; read-out: KRAS G12D FRET data IC50
KRAS G12D, sequence (P01116-2 other isoform, or with tags, fused parts or gaps G12D): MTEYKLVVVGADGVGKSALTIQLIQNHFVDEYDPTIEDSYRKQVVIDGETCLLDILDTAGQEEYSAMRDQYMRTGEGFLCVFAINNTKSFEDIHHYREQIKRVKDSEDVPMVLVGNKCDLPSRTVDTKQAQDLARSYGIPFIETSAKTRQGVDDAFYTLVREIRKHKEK
KRAS G12D, sequence (P62937 whole entry): as the sequence (P62937 whole entry) above
Procedure, shortened: as §1

KRAS G12V = KRAS G12V (Homo sapiens (Human), UniProt P01116+P62937, G12V); assay: Ras-Raf (BRAF RBD) disruption / FRET / MOA assay, KRAS G12V; assay type: biochemical; conditions: read-out: IC50* KRAS G12V FRET data
KRAS G12V, sequence (P01116-2 other isoform, or with tags, fused parts or gaps G12V): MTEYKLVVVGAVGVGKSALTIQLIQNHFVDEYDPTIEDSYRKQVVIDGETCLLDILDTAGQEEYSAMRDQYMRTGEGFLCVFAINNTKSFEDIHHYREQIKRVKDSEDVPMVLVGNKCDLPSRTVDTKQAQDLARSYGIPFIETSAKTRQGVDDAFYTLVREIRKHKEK
KRAS G12V, sequence (P62937 whole entry): as the sequence (P62937 whole entry) above
Procedure, shortened: as §1

KRAS WT = KRAS WT (Homo sapiens (Human), UniProt P01116+P62937); assay: Ras-Raf (BRAF RBD) disruption / FRET / MOA assay, KRAS WT; assay type: biochemical; conditions: read-out: IC50* KRAS WT FRET data
KRAS WT, sequence (P01116-2 other isoform, or with tags, fused parts or gaps): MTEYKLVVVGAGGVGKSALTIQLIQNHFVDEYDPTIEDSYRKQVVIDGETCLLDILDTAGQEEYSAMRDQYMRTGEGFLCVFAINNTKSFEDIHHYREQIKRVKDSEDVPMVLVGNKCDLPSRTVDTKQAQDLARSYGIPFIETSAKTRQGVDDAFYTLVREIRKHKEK
KRAS WT, sequence (P62937 whole entry): as the sequence (P62937 whole entry) above
Procedure, shortened: as §1

KRAS G13D = KRAS G13D (Homo sapiens (Human), UniProt P01116+P62937, G13D); assay: Ras-Raf (BRAF RBD) disruption / FRET / MOA assay, KRAS G13D; assay type: biochemical; conditions: read-out: IC50* KRAS G13D FRET data
KRAS G13D, sequence (P01116-2 other isoform, or with tags, fused parts or gaps G13D): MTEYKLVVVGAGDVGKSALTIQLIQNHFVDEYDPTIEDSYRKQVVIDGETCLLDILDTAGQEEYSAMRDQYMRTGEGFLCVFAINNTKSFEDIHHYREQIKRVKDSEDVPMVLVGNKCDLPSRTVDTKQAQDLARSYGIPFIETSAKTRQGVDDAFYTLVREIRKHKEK
KRAS G13D, sequence (P62937 whole entry): as the sequence (P62937 whole entry) above
Procedure, shortened: as §1

NRAS G12C = NRAS G12C (Homo sapiens (Human), UniProt P01111+P62937, G12C); assay: Ras-Raf (BRAF RBD) disruption / FRET / MOA assay, NRAS G12C; assay type: biochemical; conditions: read-out: IC50* NRAS G12C FRET data
NRAS G12C, sequence (P01111 whole entry G12C): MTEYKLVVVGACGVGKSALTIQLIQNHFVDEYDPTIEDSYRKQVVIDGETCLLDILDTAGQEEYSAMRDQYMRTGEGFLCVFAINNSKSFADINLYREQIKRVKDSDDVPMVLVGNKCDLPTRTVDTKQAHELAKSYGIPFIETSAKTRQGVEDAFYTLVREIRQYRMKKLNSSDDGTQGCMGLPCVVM
NRAS G12C, sequence (P62937 whole entry): as the sequence (P62937 whole entry) above
Procedure, shortened: as §1

Row | Structure (SMILES) | pEC50 [1] | pIC50 (NCI-H358 (K-Ras G12C)) | pIC50 (K-Ras G12C) | pIC50 (K-Ras G13C) | pIC50 (KRAS G12S) | pIC50 (KRAS G12D) | pIC50 (KRAS G12V) | pIC50 (KRAS WT) | pIC50 (KRAS G13D) | pIC50 (NRAS G12C) | IC50 (K-Ras G12C) | IC50 (K-Ras G13C) | IC50 (KRAS G12S) | IC50 (KRAS G12V) | IC50 (KRAS WT) | IC50 (NRAS G12C)
1 | CCn1c(-c2ccccc2CN(C)C)c2c3cc(ccc31)-c1cc(O)cc(c1)C[C@H](NC(=O)[C@@H](C(C)C)N(C)C(=O)c1ncc(NC(=O)/C=C/CN(C)C)n1C)C(=O)N1CCC[C@H](N1)C(=O)OCC(C)(C)C2 [Example A126] | > 5.30 | < 6.00 | 7.00 to 8.00 | 6.00 to 7.00 | < 5.00 | < 5.00 | < 5.00 | < 5.00 | < 5.00 | 7.00 to 8.00 |  |  |  |  |  | 
2 | C=CC(=O)N1CC[C@H](C(=O)N(C)[C@H](C(=O)N[C@H]2Cc3cc(O)cc(c3)-c3ccc4c(c3)c(c(-c3ccc(COC)cc3CN(C)C)n4CC)CC(C)(C)COC(=O)[C@@H]3CCCN(N3)C2=O)C(C)C)C1 [Example A127] | > 5.30 | 6.00 to 7.00 | 7.00 to 8.00 | 6.00 to 7.00 | 6.00 to 7.00 | 5.00 to 6.00 | 6.00 to 7.00 | 5.00 to 6.00 | 5.00 to 6.00 | 7.00 to 8.00 |  |  |  |  |  | 
3 | C=CC(=O)N1CC[C@H](C(=O)N(C)[C@H](C(=O)N[C@H]2Cc3cc(O)cc(c3)-c3ccc4c(c3)c(c(-c3ccncc3CN(C)C)n4CC)CC(C)(C)COC(=O)[C@@H]3CCCN(N3)C2=O)C(C)C)C1 [Example A128] | > 5.30 | > 8.00 | 7.00 to 8.00 | 6.00 to 7.00 | 6.00 to 7.00 | 5.00 to 6.00 | 6.00 to 7.00 | 6.00 to 7.00 | 6.00 to 7.00 | 7.00 to 8.00 |  |  |  |  |  | 
4 | CCn1c(-c2cccnc2COC)c2c3cc(ccc31)-c1cc(O)cc(c1)C[C@H](NC(=O)[C@H](C(C)C)N(C)C(=O)[C@H]1CCN(C(=O)C#CCCN3CCOCC3)C1)C(=O)N1CCC[C@H](N1)C(=O)OCC(C)(C)C2 [Example A129] | > 5.30 | 7.00 to 8.00 | > 8.00 | 6.00 to 7.00 | 6.00 to 7.00 | 5.00 to 6.00 | 6.00 to 7.00 | 5.00 to 6.00 | 5.00 to 6.00 | > 8.00 |  |  |  |  |  | 
5 | CCn1c(-c2cnccc2[C@H](C)OC)c2c3cc(ccc31)-c1cccc(c1)C[C@H](NC(=O)[C@H](C1CCCC1)N(C)C(=O)[C@H]1CCN(C(=O)C#CCN(C)C)C1)C(=O)N1CCC[C@H](N1)C(=O)OCC(C)(C)C2 [Example A133] | > 5.30 | 7.00 to 8.00 |  |  |  | 5.00 to 6.00 |  |  | 5.00 to 6.00 |  | 10 nM to 100 nM and < 10 nM (2×) | 10 nM to 100 nM (2×) and 1 µM to 10 µM | 1 µM to 10 µM (2×) and > 10 µM | 1 µM to 10 µM (2×) and > 10 µM | 1 µM to 10 µM (2×) and > 10 µM | 10 nM to 100 nM and < 10 nM (2×)
6 | CCn1c(-c2cccnc2COC)c2c3cc(ccc31)-c1cc(O)cc(c1)C[C@H](NC(=O)[C@H](C(C)C)N(C)C(=O)[C@H]1CCN(C(=O)/C=C/CN3CCOCC3)C1)C(=O)N1CCC[C@H](N1)C(=O)OCC(C)(C)C2 [Example A134] | > 5.30 | 6.00 to 7.00 | 7.00 to 8.00 | 5.00 to 6.00 | 5.00 to 6.00 | 5.00 to 6.00 | 5.00 to 6.00 | 5.00 to 6.00 | 5.00 to 6.00 | 7.00 to 8.00 |  |  |  |  |  | 
7 | CCn1c(-c2cnccc2COC)c2c3cc(ccc31)-c1cncc(c1)C[C@H](NC(=O)[C@H](C(C)C)N(C)C(=O)[C@H]1CCN(C(=O)C#CCN(C)C)C1)C(=O)N1CCC[C@H](N1)C(=O)OCC(C)(C)C2 [Example A139] | > 5.30 | 6.00 to 7.00 | 7.00 to 8.00 | 5.00 to 6.00 | < 5.00 | 5.00 to 6.00 | < 5.00 | < 5.00 | < 5.00 | 6.00 to 7.00 |  |  |  |  |  | 
8 | CCn1c(-c2cnccc2[C@H](C)OC)c2c3cc(ccc31)-c1cccc(c1)C[C@H](NC(=O)[C@H](C(C)C)N(C)C(=O)[C@H]1CCN(C(=O)C#CCN(C)C)C1)C(=O)N1CCC[C@H](N1)C(=O)OCC(C)(C)C2 [Example A140] | > 5.30 | > 8.00 | > 8.00 | 7.00 to 8.00 | 5.00 to 6.00 | 5.00 to 6.00 | 5.00 to 6.00 | 5.00 to 6.00 | 5.00 to 6.00 | > 8.00 |  |  |  |  |  | 
9 | CCn1c(-c2cnccc2C(C)C)c2c3cc(ccc31)-c1cc(O)cc(c1)C[C@H](NC(=O)[C@H](C(C)C)N(C)C(=O)[C@H]1CCN(C(=O)C#CCN(C)C)C1)C(=O)N1CCC[C@H](N1)C(=O)OCC(C)(C)C2 [Example A141] | > 5.30 | > 8.00 | > 8.00 | 7.00 to 8.00 | 6.00 to 7.00 | 5.00 to 6.00 | 6.00 to 7.00 | 6.00 to 7.00 | 6.00 to 7.00 | > 8.00 |  |  |  |  |  | 
10 | CCn1c(-c2cccnc2)c2c3cc(ccc31)-c1cc(O)cc(c1)C[C@H](NC(=O)[C@H](C(C)C)N(C)C(=O)[C@H]1CCN(C(=O)C#CCN(C)C)C1)C(=O)N1CCC[C@H](N1)C(=O)OCC(C)(C)C2 [Example A142] | > 5.30 | 6.00 to 7.00 | 7.00 to 8.00 | 6.00 to 7.00 | < 5.00 | 5.00 to 6.00 | < 5.00 | < 5.00 | 5.00 to 6.00 | 7.00 to 8.00 |  |  |  |  |  | 
11 | C=CC(=O)N1CCN(C(=O)N(C)[C@H](C(=O)N[C@H]2Cc3cc(O)cc(c3)-c3ccc4c(c3)c(c(-c3ccccc3CCOC)n4CC)CC(C)(C)COC(=O)[C@@H]3CCCN(N3)C2=O)C(C)C)C[C@H]1COC [Example A146] | > 5.30 | 6.00 to 7.00 | 6.00 to 7.00 | 6.00 to 7.00 | 5.00 to 6.00 | < 5.00 | 5.00 to 6.00 | 5.00 to 6.00 | 5.00 to 6.00 | 6.00 to 7.00 |  |  |  |  |  | 
12 | C=CC(=O)N(C)CC(=O)N(C)[C@H](C(=O)N[C@H]1Cc2cc(O)cc(c2)-c2ccc3c(c2)c(c(-c2cccnc2COC)n3CC)CC(C)(C)COC(=O)[C@@H]2CCCN(N2)C1=O)C(C)C [Example A147] | > 5.30 | 7.00 to 8.00 | 6.00 to 7.00 | 6.00 to 7.00 | 6.00 to 7.00 | 5.00 to 6.00 | 6.00 to 7.00 | 6.00 to 7.00 | 5.00 to 6.00 | 6.00 to 7.00 |  |  |  |  |  | 
13 | C#CC(=O)N1CC[C@H](C(=O)N(C)[C@H](C(=O)N[C@H]2Cc3cc(O)cc(c3)-c3ccc4c(c3)c(c(-c3cnccc3[C@H](C)OC)n4CC)CC(C)(C)COC(=O)[C@@H]3CCCN(N3)C2=O)C(C)C)C1 [Example A150] | > 5.30 | > 8.00 | 7.00 to 8.00 | 7.00 to 8.00 | 6.00 to 7.00 | 5.00 to 6.00 | 6.00 to 7.00 | 6.00 to 7.00 | 6.00 to 7.00 | 7.00 to 8.00 |  |  |  |  |  | 
